Results taken from patent US12344600B2, “c-Myc mRNA translation modulators and uses thereof in the treatment of cancer” (Anima Biotech Inc., priority 2022, dated 2025).
Starred links: 1 amine or outer side, 2 acyl side, 3 side chain; linkers in the order of their positions; H or OH if unused. Positions of bridges follow the written chain, without caps; N, C: chain ends. Non-standard residues stand in square brackets, D forms with d. Residues, ends and D or L forms follow the SMILES beside them. Chains are numbered I, II in the order given. Actinocin(9to1) = Cc1c2oc3c(C)ccc(C(=O)[*:1])c3nc-2c(C(=O)[*:2])c(N)c1=O; NMeV = CN[C@H](C(=O)O)C(C)C; Sar = CNCC(=O)O

How the values were obtained:
Assay type in all cases: cell-based, human
global protein synthesis = assay: AHA metabolic labeling in A549 cells
Excerpt: FIG. 2 depicts selective regulation of c-Myc translation. […] Cell nuclei stained with DAPI and AHA metabolic labeling are signed on the images.

[1] = test system: global translation in A549 cells; assay: Metabolic labeling assay (global translation); details: 4 hour pulse, FIG. 2
Procedure: A549 cells were incubated with active compounds and metabolically labelled with fluorescent methionine for a 4 hour pulse (click-chemistry modified methionine). Cells were fixed and newly synthesized proteins detected by using click-chemistry with a fluorescent detector (FIG. 2).
A549 cells were seeded at 3,200 cells per well in complete culture medium. Plates were incubated at 37° C., 5% CO2 overnight. After 48 hours of incubation, the growth medium was aspirated, and cells were washed three times with HBSS. Metabolic labeling medium DMEM (-Cys -Met), containing 10% dialyzed FBS, 1% penicillin-streptomycin and 1% L-glutamine was added to the cells for 30 min. Then medium was replaced by metabolic labeling medium containing 25 μM L-Azidohomoalanine (AHA, ThermoFisher) and tested compounds at a final concentration of 30 μM, and cells were incubated for 4 hours at 37° C., 5% CO2. Cells were washed by HBSS at 37° C. for 15 min before fixing with 4% paraformaldehyde. Cells were washed twice with 3% BSA in PBS before permeabilization with 0.5% Triton X-100 in PBS for 20 min. The AHA staining with Alexa Fluor™ 555 alkyne was performed according to the manufacturer protocol. Images were captured with Operetta microscope (Perkin Elmer) using ×20 high NA objective lens.

c-Myc protein = c-Myc protein level in A549 cells (imaging)
Excerpt: (§1) A549 cells were exposed to vehicle, general transcription inhibitor actinomycin D or anti-c-Myc compound. […] Cell nuclei stained with DAPI, c-Myc protein, c-Myc mRNA and transcription sites are signed on the images.

c-Myc mRNA [2] = assay: c-Myc mRNA level and transcription sites in A549 cells (imaging)
Excerpt: as §1

c-Myc = c-Myc immunofluorescence assay; details: A549 cells, 24 hours
Method in brief: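 A549 NSCLC cells grown 48 h, then treated 24 h with increasing compound concentrations; fixed in 4% paraformaldehyde, stained with anti-c-Myc antibody plus fluorescent secondary and DAPI. Per-cell c-Myc fluorescence quantified by high-content imaging at 20×; dose-response fitted by logistic regression to give EC50.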

c-Myc mRNA [3] = assay: Fluorescent in situ hybridization (FISH) assay; details: A549 cells, 4 hours, FIG. 3 lower panel
Procedure: A549 cells were incubated with compounds for 24 hours (FIG. 3, upper panel) and c-Myc protein detected by immunofluorescence. In parallel, A549 cells were incubated with compounds for 4 hours and c-Myc mRNA was visualized by microscopy using c-Myc mRNA specific fluorescent-tagged probes (FIG. 3, lower panel).
A549 cells were grown in 384-wells plates (Perkin Elmer, Cat. 6057300) for 48 hours, treated with compounds for 4 hours and then fixed for 20 min in 4% paraformaldehyde. Next day, permeabilization was done for 90 min at 4° C., using 70% ethanol. Then, the cells were incubated for 10 min with 10% formamide in 10% saline-sodium citrate. Fluorescently labeled customer DNA probes that target c-Myc (Cy3, BioSearch Technologies, Cat. SMF-1063-5) and GAPDH (Cy5, BioSearch Technologies, Cat. SMF-2019-1) mRNAs were hybridized overnight at 37° C. in a dark chamber in 10% formamide. The next day, cells were washed twice with 10% formamide for 30 min. […]
Following RNA FISH experiments, images of cells were taken with Operetta (Perkin Elmer, USA), a wide-field fluorescence microscope at ×63 magnification. […] In Columbus, cells were identified by their nucleus, using the “Find Nuceli” module, cytoplasm was detected based on the FISH-channel, and single mRNAs in the cytoplasm and transcription sites in the nucleus were detected using “Find Spots” module. […]

SMILES: C[C@@H]1C[C@@H]([C@H](O)CC2CC(=O)NC(=O)C2)C(=O)[C@@H](C)C1 [cycloheximide]
- global protein synthesis (AHA metabolic labeling) (global protein synthesis): total inhibition
- incorporation of modified methionine (global translation) [1]: completely reduced incorporation of modified methionine

SMILES: Cc1c2oc3c(C)ccc(C(=O)N[C@@H]4C(=O)N[C@H](C(C)C)C(=O)N5CCC[C@H]5C(=O)N(C)CC(=O)N(C)[C@@H](C(C)C)C(=O)O[C@@H]4C)c3nc-2c(C(=O)N[C@@H]2C(=O)N[C@H](C(C)C)C(=O)N3CCC[C@H]3C(=O)N(C)CC(=O)N(C)[C@@H](C(C)C)C(=O)O[C@@H]2C)c(N)c1=O [actinomycin D] (I: T[dV]P[Sar][NMeV] / II: T[dV]P[Sar][NMeV]; ester I:1-I:C, II:1-II:C; linker I:N-II:N via Actinocin(9to1))
- c-Myc protein level (c-Myc protein): significant decrease
- c-Myc mRNA level as well as transcription sites (c-Myc mRNA [2]): complete reduction
- c-Myc protein by immunofluorescence (c-Myc; FIG. 3 upper panel): reduced c-Myc protein
- c-Myc mRNA in the cytoplasm (c-Myc mRNA [3]): inhibited
- c-Myc transcription site (spots inside the nucleus) (c-Myc mRNA [3]): inhibited transcription site

SMILES: CCc1ccc(CNC(=O)C2CCN(c3nc(-c4ccc(OC)cc4)no3)CC2)cc1 [Compound 126, N-(4-ethylbenzyl)-1-(3-(4-methoxyphenyl)-1,2,4-oxadiazol-5-yl)piperidine-4-carboxamide]
- Myc Efficacy (−LogEC50) (c-Myc; anti-c-Myc immunofluorescence): + (+ >3 and <5)
